PubChem BioAssay AID248 (DTP/NCI, 2004)
Toxic doses and inconclusive results are not listed. Rule as the data show it: active = T/C of 150% or more; inactive = T/C below 125%.

Test system: L1210 leukemia ip in BDF1 mice, survival T/C
Test: NCI In Vivo Anticancer Drug Screen. Data for tumor model L1210 Leukemia (intraperitoneal) in B6D2F1 (BDF1) mice
Conditions: endpoint: mean survival time, higher = longer survival
Summary of the method: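 Survival endpoint. Drug-treated group vs vehicle group, expressed as T divided by C. Tumor passaged by transplantation.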

[1] = dose: 100.0 mg/kg/injection, schedule: Q04DX003 (ip), vehicle: saline with Tween-80
[2] = dose: 100.0 mg/kg/injection, schedule: Q01DX009 (ip), vehicle: saline with Tween-80
[3] = dose: 200.0 mg/kg/injection, schedule: Q01DX009 (ip), vehicle: saline with Tween-80
[4] = dose: 400.0 mg/kg/injection, schedule: Q01DX009 (ip), vehicle: saline with Tween-80
[5] = dose: 100.0 mg/kg/injection, schedule: Q01DX001 (ip), vehicle: carboxymethylcellulose (CMC)
[6] = dose: 200.0 mg/kg/injection, schedule: Q01DX001 (ip), vehicle: carboxymethylcellulose (CMC)
[7] = dose: 400.0 mg/kg/injection, schedule: Q01DX001 (ip), vehicle: carboxymethylcellulose (CMC)
[8] = dose: 100.0 mg/kg/injection, schedule: Q01DX001 (ip), vehicle: saline with Tween-80
[9] = dose: 200.0 mg/kg/injection, schedule: Q01DX001 (ip), vehicle: saline with Tween-80
[10] = dose: 400.0 mg/kg/injection, schedule: Q01DX001 (ip), vehicle: saline with Tween-80
[11] = dose: 200.0 mg/kg/injection, schedule: Q04DX003 (ip), vehicle: saline with Tween-80
[12] = dose: 75.0 mg/kg/injection, schedule: Q01DX001 (ip), vehicle: carboxymethylcellulose (CMC)
[13] = dose: 150.0 mg/kg/injection, schedule: Q01DX001 (ip), vehicle: carboxymethylcellulose (CMC)
[14] = dose: 100.0 mg/kg/injection, schedule: Q01DX009 (ip), vehicle: Klucel (hydroxypropylcellulose) (HPC)
[15] = dose: 200.0 mg/kg/injection, schedule: Q01DX009 (ip), vehicle: Klucel (hydroxypropylcellulose) (HPC)

Measured: T/C

c1ccc2c(c1)C[n+]1ccccc1-2
inactive: dose: 75.0 mg/kg/injection, schedule: Q01DX001 (ip), vehicle: other 102 % of control

CCCN(CCC)CC(=O)N1CC(=O)Nc2ccccc21
inactive: dose: 25.0 mg/kg/injection, schedule: Q01DX009 (ip), vehicle: acetone 98 % of control | dose: 50.0 mg/kg/injection, schedule: Q01DX009 (ip), vehicle: acetone 96 % of control | dose: 100.0 mg/kg/injection, schedule: Q01DX009 (ip), vehicle: acetone 95 % of control | dose: 100.0 mg/kg/injection, schedule: Q04DX003 (ip), vehicle: acetone 103 % of control | dose: 200.0 mg/kg/injection, schedule: Q04DX003 (ip), vehicle: acetone 103 % of control

O=C(NCCNCc1ccccc1)c1ccccc1
inactive: dose: 25.0 mg/kg/injection, schedule: Q01DX009 (ip), vehicle: water 97 % of control | dose: 25.0 mg/kg/injection, schedule: Q04DX003 (ip), vehicle: water 96 % of control | dose: 50.0 mg/kg/injection, schedule: Q01DX009 (ip), vehicle: water 98 % of control | dose: 50.0 mg/kg/injection, schedule: Q04DX003 (ip), vehicle: water 107 % of control | [1] 108 % of control | dose: 100.0 mg/kg/injection, schedule: Q04DX003 (ip), vehicle: water 92 % of control

CCCCCCSc1ccc2c(cc1=O)C(NC(C)=O)CCc1cc(OC)c(OC)c(OC)c1-2 (stereo not given)
inactive: dose: 12.5 mg/kg/injection, schedule: Q04DX002 (ip), vehicle: saline 95 % of control | dose: 25.0 mg/kg/injection, schedule: Q04DX002 (ip), vehicle: saline 95 % of control | dose: 50.0 mg/kg/injection, schedule: Q04DX002 (ip), vehicle: saline 104 % of control

CC/C=C(\CC(=O)OCC)C(=O)OCC
inactive: [2] 101 % of control | [3] 96 % of control | [4] 92 % of control

c1cncc(C2OCCO2)c1
inactive: dose: 100.0 mg/kg/injection, schedule: Q04DX003 (ip), vehicle: saline 98 % of control | dose: 200.0 mg/kg/injection, schedule: Q04DX003 (ip), vehicle: saline 92 % of control | dose: 400.0 mg/kg/injection, schedule: Q04DX003 (ip), vehicle: saline 105 % of control

CCCCCCCCCC(=O)N(CC)CC
inactive: dose: 200.0 mg/kg/injection, schedule: Q04DX002 (ip), vehicle: saline 111 % of control | dose: 400.0 mg/kg/injection, schedule: Q04DX002 (ip), vehicle: saline 92 % of control

CCCNC(=O)Nc1ccc(Cl)cc1
inactive: [5] 103 % of control | [6] 98 % of control | [7] 95 % of control

O=C(COc1cccc(Cl)c1)NCc1ccc([N+](=O)[O-])cc1
inactive: [8] 96 % of control | [2] 94 % of control | [9] 93 % of control | [3] 100 % of control | [10] 101 % of control | [4] 97 % of control

NC1CCCN(Cc2ccccc2)C1 (stereo not given)
inactive: dose: 75.0 mg/kg/injection, schedule: Q04DX003 (ip), vehicle: saline 104 % of control | dose: 150.0 mg/kg/injection, schedule: Q04DX003 (ip), vehicle: saline 100 % of control

O=Cc1ccc(C(=O)O)cc1O
inactive: [1] 98 % of control | [11] 102 % of control

O=S1(=O)CC2C3C=CC(O3)C21 (stereo not given)
inactive: [12] 102 % of control | [13] 98 % of control

COC(=O)c1ccccc1NC(=O)c1c(-c2ccccc2Cl)noc1C
inactive: [14] 99 % of control | [15] 94 % of control | dose: 400.0 mg/kg/injection, schedule: Q01DX009 (ip), vehicle: Klucel (hydroxypropylcellulose) (HPC) 98 % of control

CCCC(CCC)=NCCCO
inactive: [12] 96 % of control | [13] 102 % of control

COc1ccc2c(c1)C13CCCC(C)(C(=O)NC1)C3CC2 (stereo not given)
inactive: [5] 93 % of control | [6] 95 % of control | [7] 101 % of control

CC(=O)NCCc1[nH]cnc1N=Nc1ccc(Br)cc1
inactive: [8] 96 % of control | [9] 96 % of control | [10] 94 % of control

CN1CCC(=C(C#N)c2ccccc2)CC1
inactive: dose: 25.0 mg/kg/injection, schedule: Q04DX003 (ip), vehicle: saline 97 % of control | dose: 50.0 mg/kg/injection, schedule: Q04DX003 (ip), vehicle: saline 97 % of control

O=C(N/N=C/c1ccccc1Cl)c1ccccc1
inactive: [1] 96 % of control | [11] 101 % of control | dose: 400.0 mg/kg/injection, schedule: Q04DX003 (ip), vehicle: saline with Tween-80 88 % of control

c1ccc(Cn2ccnn2)cc1
inactive: dose: 50.0 mg/kg/injection, schedule: Q01DX009 (ip), vehicle: Klucel (hydroxypropylcellulose) (HPC) 96 % of control | [14] 92 % of control | [15] 115 % of control

Cc1cc(Br)c2ccccc2c1N(CC(=O)O)S(=O)(=O)c1ccccc1
inactive: dose: 100.0 mg/kg/injection, schedule: Q01DX001 (ip), vehicle: saline sonified 97 % of control | [2] 91 % of control | dose: 200.0 mg/kg/injection, schedule: Q01DX001 (ip), vehicle: saline sonified 100 % of control | [3] 91 % of control | dose: 400.0 mg/kg/injection, schedule: Q01DX001 (ip), vehicle: saline sonified 97 % of control | [4] 97 % of control

N#Cc1ccc(CC(O)(c2ccccc2)c2ccccc2)cc1
inactive: dose: 50.0 mg/kg/injection, schedule: Q01DX001 (ip), vehicle: carboxymethylcellulose (CMC) 106 % of control | [5] 101 % of control | [6] 98 % of control | [7] 89 % of control

CC(C(=O)c1ccc(Br)cc1)C(O)(C(F)(F)F)C(F)(F)F (stereo not given)
inactive: dose: 100.0 mg/kg/injection, schedule: Q01DX007 (ip), vehicle: saline with Tween-80 102 % of control | dose: 200.0 mg/kg/injection, schedule: Q01DX007 (ip), vehicle: saline with Tween-80 109 % of control | dose: 400.0 mg/kg/injection, schedule: Q01DX007 (ip), vehicle: saline with Tween-80 101 % of control

CCC(COC(=O)c1ccccc1)(COC(=O)c1ccccc1)[N+](=O)[O-]
inactive: dose: 100.0 mg/kg/injection, schedule: Q01DX001 (ip), vehicle: Klucel (hydroxypropylcellulose) (HPC) 105 % of control | dose: 200.0 mg/kg/injection, schedule: Q01DX001 (ip), vehicle: Klucel (hydroxypropylcellulose) (HPC) 95 % of control | dose: 400.0 mg/kg/injection, schedule: Q01DX001 (ip), vehicle: Klucel (hydroxypropylcellulose) (HPC) 108 % of control

N#CCCCCn1ccc(=O)[nH]c1=O
inactive: dose: 45.0 mg/kg/injection, schedule: Q01DX009 (ip), vehicle: Klucel (hydroxypropylcellulose) (HPC) 92 % of control | dose: 90.0 mg/kg/injection, schedule: Q01DX009 (ip), vehicle: Klucel (hydroxypropylcellulose) (HPC) 104 % of control | dose: 100.0 mg/kg/injection, schedule: Q04DX003 (ip), vehicle: Klucel (hydroxypropylcellulose) (HPC) 100 % of control | dose: 180.0 mg/kg/injection, schedule: Q01DX009 (ip), vehicle: Klucel (hydroxypropylcellulose) (HPC) 98 % of control | dose: 200.0 mg/kg/injection, schedule: Q04DX003 (ip), vehicle: Klucel (hydroxypropylcellulose) (HPC) 102 % of control | dose: 360.0 mg/kg/injection, schedule: Q01DX009 (ip), vehicle: Klucel (hydroxypropylcellulose) (HPC) 93 % of control | dose: 400.0 mg/kg/injection, schedule: Q04DX003 (ip), vehicle: Klucel (hydroxypropylcellulose) (HPC) 96 % of control

CS(=O)(=O)OCCC(COS(C)(=O)=O)S(=O)(=O)CCCOc1ccccc1-c1ccccc1 (stereo not given)
inactive: dose: 50.0 mg/kg/injection, schedule: Q01DX009 (ip), vehicle: saline with Tween-80 94 % of control | [2] 94 % of control | [3] 94 % of control

O=S(=O)(/C=C\c1ccccc1)/C=C/c1ccccc1
inactive: dose: 25.0 mg/kg/injection, schedule: Q04DX003 (ip), vehicle: saline with Tween-80 96 % of control | dose: 50.0 mg/kg/injection, schedule: Q04DX003 (ip), vehicle: saline with Tween-80 94 % of control | [1] 92 % of control

O=Cc1nc2ccccc2cc1CCl
inactive: dose: 75.0 mg/kg/injection, schedule: Q01DX001 (ip), vehicle: saline 92 % of control
